Measurements as given in the NIST ThermoML archive (doi:10.1021/acs.jced.7b00386).

Conditions: Liquid; for mass density: Siemens ultrasonic flowmeter; for viscosity: Capillary tube (Ostwald / Ubbelohde) method

CCCCCCC(=O)OCC [ethyl heptanoate]
Conditions	mass density [kg/m3]	viscosity [mPa·s]
303.1 K, 6000 kPa	867.7	–
303.19 K, 14980 kPa	877.5	–
303.2 K, 100 kPa	860.8	–
303.2 K, 3020 kPa	864.5	–
303.2 K, 9010 kPa	871.2	–
303.21 K, 11950 kPa	874.5	–
312.72 K, 9120 kPa	–	1.006
312.73 K, 100 kPa	–	0.9036
312.77 K, 6100 kPa	–	0.9702
312.8 K, 3100 kPa	–	0.9452
312.96 K, 100 kPa	851.2	–
313.06 K, 3060 kPa	854.7	–
313.1 K, 12180 kPa	–	1.033
313.13 K, 6090 kPa	858.1	–
313.17 K, 9070 kPa	861.4	–
313.17 K, 15010 kPa	867.9	–
313.17 K, 15170 kPa	–	1.06
313.18 K, 12000 kPa	864.7	–
322.62 K, 100 kPa	–	0.7963
322.71 K, 3120 kPa	–	0.8252
322.76 K, 15110 kPa	–	0.9293
322.78 K, 6130 kPa	–	0.8471
322.85 K, 9090 kPa	–	0.8702
322.91 K, 12080 kPa	–	0.9036
323.09 K, 100 kPa	841.6	–
323.09 K, 15150 kPa	859.2	–
323.1 K, 9100 kPa	852.5	–
323.11 K, 3100 kPa	845.2	–
323.13 K, 12060 kPa	855.8	–
323.14 K, 6110 kPa	848.8	–
333.05 K, 100 kPa	832.1	–
333.14 K, 3010 kPa	835.6	–
333.14 K, 9020 kPa	843.2	–
333.14 K, 12010 kPa	846.8	–
333.18 K, 6080 kPa	839.7	–
333.2 K, 15070 kPa	850.5	–
333.42 K, 15070 kPa	–	0.8106
333.45 K, 100 kPa	–	0.7016
333.5 K, 12100 kPa	–	0.7844
333.57 K, 3070 kPa	–	0.7229
333.6 K, 9160 kPa	–	0.7629
333.63 K, 6130 kPa	–	0.7431
343.02 K, 100 kPa	823	–
343.06 K, 3010 kPa	827.1	–
343.16 K, 100 kPa	–	0.6217
343.19 K, 15000 kPa	842.1	–
343.2 K, 9000 kPa	834.8	–
343.22 K, 9070 kPa	–	0.6801
343.22 K, 12050 kPa	–	0.6996
343.22 K, 12100 kPa	838.5	–
343.23 K, 6050 kPa	831	–
343.27 K, 3070 kPa	–	0.6412
343.27 K, 15120 kPa	–	0.7191
343.38 K, 6080 kPa	–	0.6593
352.71 K, 100 kPa	–	0.5547
352.83 K, 3040 kPa	–	0.5733
352.85 K, 100 kPa	815.1	–
352.86 K, 6100 kPa	–	0.5898
352.9 K, 9030 kPa	–	0.6068
352.95 K, 3090 kPa	819.4	–
352.95 K, 12080 kPa	–	0.6227
353.04 K, 15040 kPa	–	0.6414
353.06 K, 9090 kPa	827.5	–
353.11 K, 6070 kPa	823.2	–
353.14 K, 12070 kPa	831.2	–
353.23 K, 15010 kPa	835.1	–

CCCCCCCC(=O)OCC [ethyl octanoate]
Conditions	mass density [kg/m3]	viscosity [mPa·s]
303.25 K, 100 kPa	858.1	–
303.26 K, 12080 kPa	871	–
303.3 K, 6080 kPa	864.4	–
303.32 K, 3120 kPa	861.3	–
303.32 K, 9130 kPa	867.8	–
303.33 K, 15080 kPa	874.1	–
312.87 K, 100 kPa	–	1.083
312.96 K, 3120 kPa	–	1.133
313.03 K, 6060 kPa	–	1.189
313.05 K, 100 kPa	849.5	–
313.08 K, 6150 kPa	856.1	–
313.08 K, 9090 kPa	–	1.211
313.1 K, 9150 kPa	859.6	–
313.1 K, 12100 kPa	862.7	–
313.11 K, 15110 kPa	865.9	–
313.12 K, 3140 kPa	853	–
313.12 K, 12070 kPa	–	1.245
313.14 K, 15240 kPa	–	1.284
323 K, 100 kPa	841.1	–
323.07 K, 100 kPa	–	0.9464
323.09 K, 3130 kPa	844.7	–
323.1 K, 6150 kPa	848.1	–
323.13 K, 9110 kPa	851.4	–
323.14 K, 12140 kPa	854.8	–
323.16 K, 3150 kPa	–	0.9842
323.16 K, 15050 kPa	858.1	–
323.17 K, 6110 kPa	–	1.016
323.17 K, 9080 kPa	–	1.043
323.17 K, 12070 kPa	–	1.064
323.19 K, 15060 kPa	–	1.098
333 K, 100 kPa	832.2	–
333.14 K, 100 kPa	–	0.8143
333.14 K, 3100 kPa	836.2	–
333.18 K, 6080 kPa	839.7	–
333.18 K, 9090 kPa	843.3	–
333.2 K, 12100 kPa	846.9	–
333.21 K, 15100 kPa	850.3	–
333.29 K, 3110 kPa	–	0.8536
333.3 K, 6060 kPa	–	0.8851
333.3 K, 9130 kPa	–	0.9101
333.3 K, 15090 kPa	–	0.9551
333.31 K, 12040 kPa	–	0.9301
342.78 K, 100 kPa	–	0.731
343.07 K, 6130 kPa	–	0.7776
343.1 K, 12150 kPa	838.8	–
343.11 K, 100 kPa	823.6	–
343.11 K, 3120 kPa	827.8	–
343.14 K, 6100 kPa	831.7	–
343.16 K, 9070 kPa	835	–
343.16 K, 9090 kPa	–	0.7968
343.17 K, 15000 kPa	842.1	–
343.22 K, 12100 kPa	–	0.8165
343.27 K, 15050 kPa	–	0.8446
343.41 K, 3120 kPa	–	0.7572
353.1 K, 100 kPa	814.5	–
353.16 K, 9130 kPa	826.8	–
353.21 K, 100 kPa	–	0.6393
353.21 K, 3150 kPa	819	–
353.24 K, 15070 kPa	834.4	–
353.25 K, 12140 kPa	830.7	–
353.27 K, 6150 kPa	823	–
353.32 K, 3120 kPa	–	0.6742
353.35 K, 6090 kPa	–	0.691
353.35 K, 12080 kPa	–	0.7292
353.36 K, 15060 kPa	–	0.7479
353.38 K, 9070 kPa	–	0.707
